Assay results reported in patent US11225505B2, “Antimicrobial polymyxin derivative compounds” (MONASH UNIVERSITY, priority 2015, dated 2022).
In brackets after ≈: the same amount, converted by molar mass. Like-named read-outs stand apart in the source and are kept apart here. Where a SMILES comes first, the peptide text is derived from it. Bridges are numbered along the chain shown (N, C = ends). [ ]: non-standard residue; d: D form. The star is where a group is joined. Pyrrole2carbonyl(4,5-Br2) = O=C(c1cc(Br)c(Br)[nH]1)*; X66 = O=C(c1c[nH]c(-c2ccccc2)n1)*; X6 = Cn1c(C(=O)*)cc2cc(Cl)ccc21; X45 = O=C(c1cc(C(F)(F)F)ccn1)*; X62 = O=C(c1cc(Br)c(Br)s1)*; X36 = O=C(c1ncc(Br)cc1Br)*; X7 = O=C(c1nc2ccccc2o1)*; Dab = NCC[C@H](N)C(=O)O; Abu = CC[C@H](N)C(=O)O; Dap = NC[C@H](N)C(=O)O; X8 = O=C(c1ccnc(F)c1)*

Legend:
Assay type in all cases: cell-based
[1] = system: Acinetobacter baumannii ATCC 17978
In short: (§1)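 Antibacterial activity is given as MIC from microdilution in CAMHB under the CLSI M100-S24 standard. P. aeruginosa FADDI-PA022 and A. baumannii FADDI-AB034 are multidrug-resistant clinical isolates, while ATCC 17978 is a reference strain.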

[2] = system: Acinetobacter baumannii FADDI-AB034
In short: as §1

[3] = system: Enterobacter cloacae FADDI-EC001
In short: (§2)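 MIC; CLSI broth microdilution; cation-adjusted MH broth; test articles as TFA salts; polymyxin B control; polymyxin-susceptible isolates.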

[4] = system: Enterobacter cloacae FADDI-EC003
In short: as §1

[5] = system: Enterobacter cloacae FADDI-EC006
In short: as §1

[6] = system: Klebsiella pneumoniae FADDI-KP022
In short: as §1

[7] = system: Klebsiella pneumoniae FADDI-KP032
In short: as §1

[8] = system: Klebsiella pneumoniae Kp BM1
In short: as §2

[9] = system: Pseudomonas aeruginosa ATCC 27853
In short: as §1

[10] = system: Pseudomonas aeruginosa FADDI-PA01
In short: as §1

[11] = system: Pseudomonas aeruginosa FADDI-PA022
In short: as §1

[12] = system: Pseudomonas aeruginosa FADDI-PA038
In short: as §1

[13] = system: Acinetobacter baumannii FADDI-AB030; assay: microbe, parasite or virus in culture
In short: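 Broth microdilution MIC in cation-adjusted Mueller-Hinton broth per CLSI M100-S24; lipopeptides tested as TFA salts. FADDI-AB030 is a multidrug-resistant clinical isolate. Polymyxin B sulphate served as control.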

SMILES	Minimum inhibitory concentration ([1]; ATCC 17978)	Minimum inhibitory concentration ([2]; FADDI-AB034)	Minimum inhibitory concentration ([3]; FADDI-EC001)	Minimum inhibitory concentration ([4]; FADDI-EC003)	Minimum inhibitory concentration ([5]; FADDI-EC006)	Minimum inhibitory concentration ([6]; FADDI-KP022)	Minimum inhibitory concentration ([7]; FADDI-KP032)	Minimum inhibitory concentration ([8]; Kp BM1)	Minimum inhibitory concentration ([9]; ATCC 27853)	Minimum inhibitory concentration ([10]; FADDI-)	Minimum inhibitory concentration ([11]; FADDI-PA022)	Minimum inhibitory concentration ([12]; FADDI-PA038)	Minimum inhibitory concentration ([13]; FADDI-AB030)	further results
CC[C@@H]1NC(=O)[C@@H](CC(C)C)NC(=O)[C@H](CCN)NC(=O)[C@@H](NC(=O)[C@H](CN)NC(=O)[C@@H](NC(=O)[C@H](CCN)NC(=O)c2cc(Br)c(Br)s2)[C@@H](C)O)CCNC(=O)[C@H]([C@@H](C)O)NC(=O)[C@H](CCN)NC(=O)[C@H](CCN)NC1=O [Compound 83] (X62-[Dab]T[Dap][Dab][Dab][dL][Abu][Dab][Dab]T; lactam 4-C)	0.25 µg/mL (≈ 0.199 µM)	<0.125 µg/mL	0.5 µg/mL (≈ 0.398 µM)	0.25 µg/mL (≈ 0.199 µM)	<0.125 µg/mL	<0.125 µg/mL	0.25 µg/mL (≈ 0.199 µM)	<0.125 µg/mL	0.25 µg/mL (≈ 0.199 µM)	0.25 µg/mL (≈ 0.199 µM)	0.25 µg/mL (≈ 0.199 µM)	0.5 µg/mL (≈ 0.398 µM)	<0.125 µg/mL	–
CC[C@@H]1NC(=O)[C@@H](CC(C)C)NC(=O)[C@H](CCN)NC(=O)[C@@H](NC(=O)[C@H](CN)NC(=O)[C@@H](NC(=O)[C@H](CCN)NC(=O)c2cc(Br)c(Br)[nH]2)[C@@H](C)O)CCNC(=O)[C@H]([C@@H](C)O)NC(=O)[C@H](CCN)NC(=O)[C@H](CCN)NC1=O [Compound 77] ({Pyrrole2carbonyl(4,5-Br2)}-[Dab]T[Dap][Dab][Dab][dL][Abu][Dab][Dab]T; lactam 4-C)	0.5 µg/mL (≈ 0.404 µM)	0.25 µg/mL (≈ 0.202 µM)	0.25 µg/mL (≈ 0.202 µM)	0.25 µg/mL (≈ 0.202 µM)	<0.125 µg/mL	<0.125 µg/mL	0.25 µg/mL (≈ 0.202 µM)	<0.125 µg/mL	0.25 µg/mL (≈ 0.202 µM)	0.25 µg/mL (≈ 0.202 µM)	0.5 µg/mL (≈ 0.404 µM)	1 µg/mL (≈ 0.808 µM)	0.25 µg/mL (≈ 0.202 µM)	–
CC[C@@H]1NC(=O)[C@@H](CC(C)C)NC(=O)[C@H](CCN)NC(=O)[C@@H](NC(=O)[C@H](CN)NC(=O)[C@@H](NC(=O)[C@H](CCN)NC(=O)c2ncc(Br)cc2Br)[C@@H](C)O)CCNC(=O)[C@H]([C@@H](C)O)NC(=O)[C@H](CCN)NC(=O)[C@H](CCN)NC1=O [Compound 22] (X36-[Dab]T[Dap][Dab][Dab][dL][Abu][Dab][Dab]T; lactam 4-C)	0.5 µg/mL (≈ 0.4 µM)	0.5 µg/mL (≈ 0.4 µM)	<0.125 µg/mL	<0.125 µg/mL	<0.125 µg/mL	<0.125 µg/mL	<0.125 µg/mL	<0.125 µg/mL	0.5 µg/mL (≈ 0.4 µM)	0.25 µg/mL (≈ 0.2 µM)	0.5 µg/mL (≈ 0.4 µM)	0.5 µg/mL (≈ 0.4 µM)	0.5 µg/mL (≈ 0.4 µM)	–
CC[C@@H]1NC(=O)[C@@H](CC(C)C)NC(=O)[C@H](CCN)NC(=O)[C@@H](NC(=O)[C@H](CN)NC(=O)[C@@H](NC(=O)[C@H](CCN)NC(=O)c2c[nH]c(-c3ccccc3)n2)[C@@H](C)O)CCNC(=O)[C@H]([C@@H](C)O)NC(=O)[C@H](CCN)NC(=O)[C@H](CCN)NC1=O [Compound 82] (X66-[Dab]T[Dap][Dab][Dab][dL][Abu][Dab][Dab]T; lactam 4-C)	–	–	–	–	–	–	–	–	–	–	–	–	–	Minimum inhibitory concentration ([1]; A. baumannii ATCC 17978, CAMHB broth microdilution): 2 µg/mL (≈ 1.73 µM); Minimum inhibitory concentration ([2]; A. baumannii FADDI-AB034, CAMHB broth microdilution): 8 µg/mL (≈ 6.91 µM); Minimum inhibitory concentration ([3]; E. cloacae FADDI-EC001, CAMHB broth microdilution): 0.25 µg/mL (≈ 0.216 µM); Minimum inhibitory concentration ([4]; E. cloacae FADDI-EC003, CAMHB broth microdilution): 0.25 µg/mL (≈ 0.216 µM); Minimum inhibitory concentration ([5]; E. cloacae FADDI-EC006, CAMHB broth microdilution): 0.5 µg/mL (≈ 0.432 µM); Minimum inhibitory concentration ([6]; K. pneumoniae FADDI-KP022, CAMHB broth microdilution): <0.125 µg/mL; Minimum inhibitory concentration ([7]; K. pneumoniae FADDI-KP032, CAMHB broth microdilution): 0.5 µg/mL (≈ 0.432 µM); Minimum inhibitory concentration ([8]; K. pneumoniae Kp BM1, CAMHB broth microdilution): 1 µg/mL (≈ 0.864 µM); Minimum inhibitory concentration ([9]; P. aeruginosa ATCC 27853, CAMHB broth microdilution): 0.5 µg/mL (≈ 0.432 µM); Minimum inhibitory concentration ([10]; P. aeruginosa FADDI-PA01, CAMHB broth microdilution): 0.5 µg/mL (≈ 0.432 µM); Minimum inhibitory concentration ([11]; P. aeruginosa FADDI-PA022, CAMHB broth microdilution): 0.5 µg/mL (≈ 0.432 µM); Minimum inhibitory concentration ([12]; P. aeruginosa FADDI-PA038, CAMHB broth microdilution): 2 µg/mL (≈ 1.73 µM); Minimum inhibitory concentration ([13]; A. baumannii FADDI-AB030, CAMHB broth microdilution): 4 µg/mL (≈ 3.46 µM)
CC[C@@H]1NC(=O)[C@@H](CC(C)C)NC(=O)[C@H](CCN)NC(=O)[C@@H](NC(=O)[C@H](CN)NC(=O)[C@@H](NC(=O)[C@H](CCN)NC(=O)c2cc(C(F)(F)F)ccn2)[C@@H](C)O)CCNC(=O)[C@H]([C@@H](C)O)NC(=O)[C@H](CCN)NC(=O)[C@H](CCN)NC1=O [Compound 21] (X45-[Dab]T[Dap][Dab][Dab][dL][Abu][Dab][Dab]T; lactam 4-C)	0.25 µg/mL (≈ 0.215 µM)	0.25 µg/mL (≈ 0.215 µM)	<0.125 µg/mL	0.25 µg/mL (≈ 0.215 µM)	1 µg/mL (≈ 0.862 µM)	<0.125 µg/mL	<0.125 µg/mL	<0.125 µg/mL	0.25 µg/mL (≈ 0.215 µM)	0.25 µg/mL (≈ 0.215 µM)	0.25 µg/mL (≈ 0.215 µM)	0.5 µg/mL (≈ 0.431 µM)	0.25 µg/mL (≈ 0.215 µM)	–
CC[C@@H]1NC(=O)[C@@H](CC(C)C)NC(=O)[C@H](CCN)NC(=O)[C@@H](NC(=O)[C@H](CN)NC(=O)[C@@H](NC(=O)[C@H](CCN)NC(=O)c2ccnc(F)c2)[C@@H](C)O)CCNC(=O)[C@H]([C@@H](C)O)NC(=O)[C@H](CCN)NC(=O)[C@H](CCN)NC1=O [Compound 31] (X8-[Dab]T[Dap][Dab][Dab][dL][Abu][Dab][Dab]T; lactam 4-C)	2 µg/mL (≈ 1.8 µM)	2 µg/mL (≈ 1.8 µM)	0.5 µg/mL (≈ 0.45 µM)	0.5 µg/mL (≈ 0.45 µM)	1 µg/mL (≈ 0.901 µM)	<0.125 µg/mL	1 µg/mL (≈ 0.901 µM)	1 µg/mL (≈ 0.901 µM)	0.25 µg/mL (≈ 0.225 µM)	0.25 µg/mL (≈ 0.225 µM)	0.25 µg/mL (≈ 0.225 µM)	0.5 µg/mL (≈ 0.45 µM)	2 µg/mL (≈ 1.8 µM)	–
CC[C@@H]1NC(=O)[C@@H](CC(C)C)NC(=O)[C@H](CCN)NC(=O)[C@@H](NC(=O)[C@H](CN)NC(=O)[C@@H](NC(=O)[C@H](CCN)NC(=O)c2cc3cc(Cl)ccc3n2C)[C@@H](C)O)CCNC(=O)[C@H]([C@@H](C)O)NC(=O)[C@H](CCN)NC(=O)[C@H](CCN)NC1=O [Compound 58] (X6-[Dab]T[Dap][Dab][Dab][dL][Abu][Dab][Dab]T; lactam 4-C)	0.25 µg/mL (≈ 0.212 µM)	0.5 µg/mL (≈ 0.424 µM)	1 µg/mL (≈ 0.848 µM)	<0.125 µg/mL	0.5 µg/mL (≈ 0.424 µM)	<0.125 µg/mL	0.5 µg/mL (≈ 0.424 µM)	0.25 µg/mL (≈ 0.212 µM)	0.5 µg/mL (≈ 0.424 µM)	0.5 µg/mL (≈ 0.424 µM)	0.5 µg/mL (≈ 0.424 µM)	2 µg/mL (≈ 1.7 µM)	0.25 µg/mL (≈ 0.212 µM)	–
CC[C@@H]1NC(=O)[C@@H](CC(C)C)NC(=O)[C@H](CCN)NC(=O)[C@@H](NC(=O)[C@H](CN)NC(=O)[C@@H](NC(=O)[C@H](CCN)NC(=O)c2nc3ccccc3o2)[C@@H](C)O)CCNC(=O)[C@H]([C@@H](C)O)NC(=O)[C@H](CCN)NC(=O)[C@H](CCN)NC1=O [Compound 74] (X7-[Dab]T[Dap][Dab][Dab][dL][Abu][Dab][Dab]T; lactam 4-C)	1 µg/mL (≈ 0.883 µM)	1 µg/mL (≈ 0.883 µM)	<0.125 µg/mL	<0.125 µg/mL	0.5 µg/mL (≈ 0.442 µM)	<0.125 µg/mL	0.25 µg/mL (≈ 0.221 µM)	0.25 µg/mL (≈ 0.221 µM)	0.25 µg/mL (≈ 0.221 µM)	0.5 µg/mL (≈ 0.442 µM)	0.25 µg/mL (≈ 0.221 µM)	0.5 µg/mL (≈ 0.442 µM)	0.5 µg/mL (≈ 0.442 µM)	–
